Measured values: article PMC10609114, “Melittin-Related Peptides Interfere with Sandfly Fever Naples Virus Infection by Interacting with Heparan Sulphate” (Microorganisms, 2023)
Peptide text beside a SMILES is read from it.

Key:
Vero cells = test: Cytotoxicity assay (MTT); type: cell-based; details: 24 h at 37 °C, peptide 50 to 3.125 μM, triplicate
Protocol: Confluent Vero cells were treated with twofold serial dilutions of each peptide (50, 25, 12.5, 6.25, 3.125 μM). The 96-well plates were incubated at 37 °C/5% CO2 for 24 h; then, cell viability was analyzed by the 3-(4,5-Dimethylthiazol-2-yl)-2,5-Diphenyltetrazolium Bromide (MTT, Sigma-Aldrich, St. Louis, MO, USA) assay based on the reduction of the yellowish MTT to dark blue formazan salts. In brief, at the end of incubation, 100 μL of MTT solution (5 mg/mL) was incubated in each well for 3 h at 37 °C. Supernatant was removed and 100 μL of DMSO 100% (Sigma Aldrich) was added to dissolve formazan. Cytotoxicity was evaluated by spectrophotometric reading at 540 nm. Cell viability was calculated as a percentage of control cells. All experiments were performed in triplicate and means and standard deviations were reported. Nonlinear regression analysis was performed using GraphPad Prism software (version 8.0.1) to extract the CC50.
A preliminary experiment was carried out to evaluate the maximal non-cytotoxic concentration of RV-23 and AR-23. Twofold serial dilutions of each peptide were incubated with Vero cells for 24 h at 37 °C.
Figure 1 Cytotoxicity analysis after RV-23 and AR-23 treatment. Vero cells were treated with each peptide in the range of concentrations from 50 to 3.125 μM. After 24 h, MTT assay was carried out. Cell viability was calculated as a percentage of control cells. […]

SFNV [1] = test: Antiviral co-treatment assay (CPE, crystal violet); type: cell-based, sandfly fever Naples virus; details: Vero cells, peptide and SFNV (200 TCID50/mL) added together 1 h at 37 °C, CPE after 5 days; read-out: inhibitory concentration of 50% (IC50), co-treatment
Protocol: (§1) To analyze whether peptides were endowed with antiviral activity against SFNV, and, specifically, what stage of the infection was affected, different experimental procedures were carried out: (i) co-treatment assay: the cells (5 × 10^5/mL) were incubated with each peptide (at non-cytotoxic concentrations) and infected with the virus (200 TCID50/mL) at the same time (1 h at 37 °C); (ii) virus pre-treatment assay: […] and the mixture was subsequently titrated on cells; (iii) cell pre-treatment assay: cells were previously incubated with the peptide and then infected (1 h at 37 °C); (iv) post-treatment assay: peptide was incubated with the cells after the viral adsorption step (1 h at 37 °C). Following the incubation, the cell monolayer was rinsed three times with medium and than supplemented with DMEM 5% FBS. After 5 days post-infection, cythopathic effect (CPE) was observed and cells were stained with 0.5% crystal violet. All experiments were performed in triplicate. The inhibition rate of the infectivity was evaluated by CPE observed in the wells treated with the peptides to CPE in positive control (cells infected with virus, without peptide).
(§2) The difference between the assays was the timing of incubation of peptides on the cell monolayer. […]

SFNV [2] = test: Antiviral virus pre-treatment assay (CPE, crystal violet); type: cell-based, sandfly fever Naples virus; details: peptide incubated with SFNV 1 h at 37 °C, mixture titrated on Vero cells, CPE after 5 days; read-out: inhibitory concentration of 50% (IC50), virus pre-treatment
Protocol: as §1, §2

SFNV [3] = test: Heparin assay: neutralization of SFNV infection by heparin; type: cell-based, sandfly fever Naples virus; details: Vero cells, heparin 266.7 to 0.26 μM with SFNV (200 TCID50/mL) 1 h at 37 °C, CPE after 5 days
Protocol: To analyze if heparin could neutralize the virus binding to cells, Vero were infected with SFNV (200 TCID50/mL) and simultaneously treated with serial heparin dilutions (1.56, […], 25, 100, 400, and 1600 μg/mL) for 1 h at 37 °C. Then, the cell monolayer was washed with medium and incubated in the presence of DMEM 5% FBS for 5 days until the CPE appeared. To analyze the simultaneous effect of heparin and each peptide against SFNV infection, a standard concentration of RV-23 or AR-23 (10 μM) was incubated together with the same above-mentioned heparin concentrations. At the same time, the virus (200 TCID50/mL) was added to cell monolayer and subsequently incubated for 1 h at 37 °C. The infection was observed after 5 days infection via CPE.
Phleboviruses use GAGs for the viral entry, including heparin and heparan sulphate (HS). […] Different concentrations of heparin were incubated with the virus during the adsorption phase, and after 5 days of infection, the CPE was analyzed (Figure 3A).
Figure 3 Heparin assay. […] Serial heparin concentrations were incubated with the virus and each peptide […] on Vero cells, and after 5 days of infection, CPE was analyzed by crystal violet staining. […]

In the case of `CC[C@H](C)[C@H](NC(=O)[C@H](C)N)C(=O)NCC(=O)N[C@@H](CO)C(=O)N[C@H](C(=O)N[C@@H](CC(C)C)C(=O)NCC(=O)N[C@@H](C)C(=O)N[C@@H](CC(C)C)C(=O)N[C@@H](C)C(=O)N[C@@H](CCCCN)C(=O)NCC(=O)N[C@@H](CC(C)C)C(=O)N1CCC[C@H]1C(=O)N[C@H](C(=O)N[C@@H](CC(C)C)C(=O)N[C@H](C(=O)N[C@@H](CO)C(=O)N[C@@H](Cc1c[nH]c2ccccc12)C(=O)N[C@H](C(=O)N[C@@H](CCCCN)C(=O)N[C@@H](CC(N)=O)C(=O)N[C@@H](CCCNC(=N)N)C(N)=O)[C@@H](C)CC)[C@@H](C)CC)[C@@H](C)O)[C@@H](C)CC` [AR-23] (H-AIGSILGALAKGLPTLISWIKNR-NH2), the “Cytotoxicity (cell viability) in words” value (Vero cells) is reported as “consistently affected cell viability at 50 μM”, the IC50 (SFNV [1]) is reported as 12.5 µM and the IC50 (SFNV [2]) is reported as 10 µM.

For `CC[C@H](C)[C@H](NC(=O)[C@@H](N)CCCNC(=N)N)C(=O)NCC(=O)N[C@H](C(=O)N[C@@H](CC(C)C)C(=O)N[C@@H](CC(C)C)C(=O)N[C@@H](C)C(=O)N[C@@H](CCCNC(=N)N)C(=O)N[C@@H](CC(C)C)C(=O)N1CCC[C@H]1C(=O)N[C@@H](CCCCN)C(=O)N[C@@H](CC(C)C)C(=O)N[C@@H](Cc1ccccc1)C(=O)N[C@@H](CO)C(=O)N[C@@H](CC(C)C)C(=O)N[C@@H](Cc1ccccc1)C(=O)N[C@@H](CCCCN)C(=O)N[C@@H](CC(C)C)C(=O)N[C@@H](CCSC)C(=O)NCC(=O)N[C@@H](CCCCN)C(=O)N[C@@H](CCCCN)C(=O)N[C@H](C(N)=O)C(C)C)C(C)C` [RV-23] (H-RIGVLLARLPKLFSLFKLMGKKV-NH2), the “Cytotoxicity (cell viability) in words” value (Vero cells) was “not cytotoxic up to the highest dose”, the IC50 (SFNV [1]) was 10 µM and the IC50 (SFNV [2]) was 6.25 µM.

For heparin, the “Inhibition of SFNV infection by heparin” value (SFNV [3]) was “strongly blocked the viral infection up to 4.2 μM”.
